Laboratory results as given in US9192675B2, “Dry powder inhaler and system for drug delivery” (MannKind Corporation, priority 2008, dated 2015).

Assay: Solubility of FDKP as a function of pH
Type: physicochemical
From the text: These properties allow FDKP to crystallize under acidic conditions and the crystals self-assemble to form particles. The particles dissolve readily under physiological conditions where the pH is neutral. As noted, microparticles having a diameter of between about 0.5 and about 10 microns can reach the lungs, successfully passing most of the natural barriers. Particles in this size range can be readily prepared from FDKP.

With O=C(O)/C=C/C(=O)NCCCCC1NC(=O)C(CCCCNC(=O)/C=C/C(=O)O)NC1=O (centres unmarked) [FDKP, bis-3,6-(N-fumaryl-4-aminobutyl)-2,5-diketopiperazine] the solubility (in acid) was “low solubility in acid” and the solubility (neutral or basic pH) was “readily soluble at neutral or basic pH”.
